Assay results from patent EP0302967A2, “Quinazoline derivative, processes for its production, and cerebral dysfunction remedying agent comprising it as active ingredient” (priority 1987, dated 1989).
pIC50: −log10 of the molar value. Where two headings read alike, the source gives them in different places. Marks after values point to notes of the source that are not given here.

How the values were obtained:
[1] = test system: Male mice of the ddY strain; assay: Anti-scopolamine-induced amnesia activity (one-trial passive avoidance response); format: in vivo; conditions: scopolamine hydrobromide 1 mg/kg i.p.; for Mean latency (seconds): p<0.01
Experimental: Male mice of the ddY strain (body weight 20-25g, 20 per group) were used, and the activity of the test compound on deficit of memory induced by scopolamine hydrobromide (a muscarinic acetylcholine receptor antagonist) was examined using one-trial passive avoidance response as an index. Using the same experimental device as in Test Example 1, the same acquisition trial and retrieval trial as in Test Example 1 were carried out (one-trial passive avoidanse response). Scopolamine hydrobromide (1 mg/kg) was intra peritoneally (i.p.) administered to the animals 20 minutes before the acquisition trial. The compound of the invention (dihydrochloride) was dissolved in 1 % gum arabic solution, and intraperitoneally administered immediately after the acquisition trial, and orally (p.o.) administered 60 minutes before the acquisition trial. A 1% solution of gum arabic was administered to the control group.

[2] = test system: Male mice of the ddY strain; assay: Anti-hypoxic activity: brain protection against normobaric hypoxia (survival time in 100% nitrogen); format: in vivo; conditions: one hour before 100% nitrogen, control group taken as 100 %, mean ± standard error, p<0.01
Experimental: Male mice of the ddY strain (body weight 20-25g, 5 per group) were orally administered with the compound of the invention (dihydrochloride) dissolved in a 1% gum arabic solution. One hour after the administration, the mouse was put in a transparent plastic container (capacity 27 liters) through which 100% nitrogen was passed at a rate of 80 liters/min. The time elapsed until the animal died (the survival time) was measured, and compared with that obtained with the control group (the group to which 1% gum arabic solution was administered).

[3] = test system: Male mice of the ddY strain; assay: Anti-CO2-induced amnesia activity (one-trial passive avoidance response); format: in vivo; conditions: retrieval 24 hours later, max 300 seconds
Experimental: Male mice of the ddY strain (body weight 20 - -30 g, 30 per group) were used. Anti-CO₂-induced amnesia activity was determined by using one-trial passive avoidance response as an index. The experimental device consisted of two compartments, one illuminated and the other dark, with a guillotine door in the boundary of the two compartments permitting free passage of the mice through it. In an acquisition trial, a mouse was placed in the illuminated compartment and allowed to enter the dark one. As soon as the mouse entered the dark compartment, the door was shut, and an electrical shock (0.5 mA, 0.2 sec.) was applied through the grid floor. Thus, the mouse was caused to learn that it receives an electric shock upon entering the dark room. In a retrieval trial, the mouse was again placed in the illuminated compartment 24 hours after the acquisition trial, and the time elapsed until it entered the dark compartment (response latency) was measured to an extent of 300 seconds at the longest. (One-trial passive avoidance response) Treatment of inducing amnesia by carbon dioxide was performed by putting the mouse in a 1.6-liter plastic container having a gas intake opening and an gas discharging opening immediately after the acquisition trial, and passing 100% carbon dioxide gas for 14 seconds at a flow rate of 8 liters/min. […]

[4] = test system: Male mice of the ddY strain; assay: Anti-hypoxic activity: brain protection against complete ischemia by decapitation (gasping persistent time); format: in vivo; conditions: decapitated one hour later, control group taken as 100 %, mean ± standard error
Experimental: Male mice of the ddY strain (body weight 20-25g, 5 per group) were orally given the compound of the invention (dihydrochloride) dissolved in 1% gum arabic solution. One hour later, the mice were decapitated, and the time elapsed until a gasping-like mouth opening movement appearing after decapitation ceased (gasping persistent time) was measured, and compared with that obtained with the control group (the group to which 1% gum arabic solution was administered).

[5] = Acute toxicity (LD50 by the Weil method); conditions: male, ddY, mouse, in vivo, dead animals counted one week later, read-out: LD₅₀
Experimental: Male ddY mice (body weight 20 - 26 g, 5 per group) were allowed to fast overnight. The compound of this invention (dihydrochloride) dissolved in distilled water was orally (p.o.) administered. From the number of dead animals counted one week later, the LD₅₀ (p.o.) was calculated by the Weil method.
Then, the compound of this invention (dihydrochloride) was dissolved in saline and intraperitoneally (i.p.) administered to the mice, and the LD₅₀ value (i.p.) was measured similarly.

brain homogenate = assay: Lipid peroxide formation inhibiting activity (antioxidant activity), MDA formed by autoxidation; format: biochemical, Rats; conditions: for Antioxidant activity (n=4) Mean ± standard error (%): percent inhibition of autoxidation on the brain homogenate, 37 °C, 30 minutes
Experimental: The effect of the test compound on the formation of lipid peroxide by autoxidation was determined by the amount of malondialdehyde (MDA) formed.
Rats were decapitated, and the cerebrum was taken out and homogenized with 4 ml, per gram of the cerebrum, of 50 mM phosphate saline-buffer (pH 7.4) and centrifuged (2800 rpm, 10 minutes). The supernatant was taken into a 10 ml test tube to obtain a brain homogenate. It was frozen at -70 °C and stored.
The brain homogenate was defrozen, and immediately then, diluted to 10-fold with the aforesaid phosphate saline-buffer. A 2 ml portion of the dilution was taken into a 10 ml test tube cooled with ice, and used to measure its antioxidant activity. Twenty microliters of an aqueous solution of the compound of this invention (dihydrochloride) was added. The amount of MDA immediately after the addition was measured as shown below (MDA 0 time). The mixture was incubated at 37 °C for 30 minutes. The reaction was stopped by adding 400 microliters of 35% perchloric acid solution. After cooling with ice, the cooled mixture was centrifuged (2800 rpm, 10 minutes). To 1 ml of the supernatant, 0.5 ml of 0.5 % thiobarbituric acid solution dissolved in 50% acetic acid solution was added, and the mixture was heated at 100 °C for 15 minutes. After cooling with ice, the absorbance of the solution at 532 nm was measured, and the amount of MDA formed was determined (MDAtest).
As a control, the amount of MDA (MDAcont) was determined as above.
The antioxidant activity of the compound of the invention was expressed in terms of percent inhibition of autoxidation on the brain homogenate. The calculation was based on the following equation. [formula]

C=CCN1CCN(c2nc(OCCCCC)c3ccccc3n2)CC1.Cl.Cl [Compound of the invention (2HCl), 2-(4-allyl-1-piperazinyl)-4-pentyloxyquinazoline dihydrochloride]
Mean latency (seconds) ([1]; 3 mg/kg (as free base) i.p. immediately after acquisition trial, control group 92.0): 190.4 **2) seconds | Mean latency (seconds) ([1]; 10 mg/kg (as free base) i.p. immediately after acquisition trial, control group 92.0): 185.1 ** seconds | Mean latency ([1]; 10 mg/kg (as free base) p.o. 60 minutes before acquisition trial, control group 63.1): 59.8 s | Mean latency (seconds) ([1]; 30 mg/kg (as free base) i.p. immediately after acquisition trial, control group 92.0): 208.7 ** seconds | Mean latency (seconds) ([1]; 30 mg/kg (as free base) p.o. 60 minutes before acquisition trial, control group 63.1): 144.6 ** seconds | Survival time (%) ([2]; 10 mg/kg orally): 122 ± 5 [1)**2)] % | Survival time (%) ([2]; 30 mg/kg orally): 151 ± 7 % | Mean latency ([3]; 10 mg/kg orally 60 minutes before acquisition trial, control group 155.3): 185.8 s | Mean latency (seconds) ([3]; 30 mg/kg orally 60 minutes before acquisition trial, control group 155.3, p<0.01): 230.0**1) seconds | Mean gasping persistent time (%) ([4]; 10 mg/kg orally): 107 ± 6% | Mean gasping persistent time (%) ([4]; 30 mg/kg orally, p<0.01): 139 ± 6 ** 2) % | Mean gasping persistent time (%) ([4]; 100 mg/kg orally, p<0.01): 187 ± 8 % | LD50 at 1 week ([5]; ip, in saline): 220 mg/kg | LD50 at 1 week ([5]; po, in distilled water, fasted overnight): 1270 mg/kg | Antioxidant activity (n=4) Mean ± standard error (%) (brain homogenate; 10 µM): 6.4 ± 7.7% | Antioxidant activity (n=4) Mean ± standard error (%) (brain homogenate; 30 µM): 27.1 ± 6.8% | Antioxidant activity (n=4) Mean ± standard error (%) (brain homogenate; 100 µM): 77.9 ± 3.1% | Antioxidant activity (n=4) Mean ± standard error (%) (brain homogenate; 300 µM): 93.4 ± 2.2% | pIC50 (brain homogenate; inhibition of autoxidation (MDA formation) on the brain homogenate, read-out: 50% inhibition concentration (IC₅₀)): 4.28
